Like-named read-outs stand apart in the source and are kept apart here.
How the values were obtained:
[1] = Dog urinary excretion and metabolite profiles after oral capsule of [14C]DCDQ; type: in vivo, beagle dogs
Experimental: Blood samples were collected from the jugular vein at 2, 4, 8, 24 and 48 hour after dose administration into tubes containing potassium EDTA as the anticoagulant and then placed on ice. Aliquots of 50 μL were removed for combustion and determination of radioactivity content. Plasma was immediately obtained from the remaining blood by centrifugation at 4° C. Urine samples were collected into tubes on dry ice at intervals of 0-8, 8-24 and 24-48 hour post-dose. Fecal samples were collected at intervals of 0-8, 8-24 and 24-48 hour post-dose at room temperature, and were homogenized. The biological specimens were stored at approximately −70° C. until analysis.
(§1) For plasma profiles, a TopCount NXT radiometric microplate reader (Perkin Elmer) was used to analyze the radioactivity in collected HPLC fractions. The limit of detection by TopCount was about 1 ng equivalent/mL. A Flo-One β Model A525 radioactivity detector (Perkin Elmer) with a 250 μL LQTR flow cell was used to acquire data for urine and fecal samples. The flow rate of Ultima Flow M scintillation fluid was 1 mL/min, providing a mixing ratio of scintillation cocktail to mobile phase of 5:1. The limits of detection by Flo-One detector were about 200 ng equivalents/mL for urine and 12 ng equivalents/g for feces.
Urine was analyzed for radioactivity concentration and analyzed by HPLC with radioactivity flow detection for metabolite profiles by direct injection to the HPLC column. LC/MS analyses for metabolite identification were also carried out with urine samples.
(§2) A Waters model 2690 HPLC system (Waters Corp., Milford, Mass.) with a built-in autosampler was used for analysis. Separations were accomplished on a Phenomenex Luna C18(2) column (150×2.0 mm, 5 μm) (Phenomenex, Torrance, Calif.). The sample chamber of the autosampler was maintained at 4° C., while the column was at ambient temperature of about 20° C. A variable wavelength UV detector set to monitor 250 nm and a Flo-One β Model A525 radioactivity detector were used for data acquisition. The HPLC mobile phase consisted of 10 mM ammonium acetate, pH 4.5 (A) and acetonitrile (B), and was delivered at 0.2 mL/min. Chromatographic condition A was used for dose analysis, while condition B was used for analysis of urine and plasma, brain and fecal extracts.

[2] = Dog plasma metabolite profiles after single 15 mg/kg oral capsule of [14C]DCDQ; type: in vivo, beagle dogs
Experimental: as §1
Plasma samples were analyzed for metabolite profiles by HPLC. Aliquots of plasma were mixed with two volumes of cold methanol containing 0.1% trifluoroacetic acid (TFA), placed on ice for about 2 minutes and then centrifuged. The supernatant fluid was transferred to a clean tube and evaporated at 22° C. under nitrogen in a Zymark TurboVap LV (Caliper Life Sciences, Hopkinton, Mass.) to a volume of about 0.3 mL. The residue was centrifuged, the supernatant volume measured and extraction efficiency determined by analysis of duplicate 20 μL aliquots for radioactivity. A 200 μL aliquot of the supernatant was injected onto the HPLC column and the effluent was collected at 20 second intervals into 96-well Lumaplates (Perkin Elmer). The plates were dried overnight in an oven at 40° C. and analyzed by a TopCount. Plasma extracts were also analyzed by LC/MS.
as §2

[3] = male, beagle, dog, plasma, oral, 15 mg/kg, 4 hr, dog 1, read-out: Estimated plasma concentration in dogs
[4] = male, beagle, dog, plasma, oral, 15 mg/kg, 4 hr, dog 2, read-out: Estimated plasma concentration in dogs
[5] = male, beagle, dog, plasma, oral, 15 mg/kg, 24 hr, dog 1, read-out: Estimated plasma concentration in dogs

SMILES | Chromatographic distribution of radioactivity in dog urine ([1]; 24-48 hr, Mean) [%] | Chromatographic distribution of radioactivity in dog urine ([1]; 24-48 hr, dog 1) [%] | Chromatographic distribution of radioactivity in dog urine ([1]; 24-48 hr, dog 3) [%] | Chromatographic distribution of radioactivity in dog urine ([1]; 24-48 hr, dog 4) [%] | Chromatographic distribution of radioactivity in dog plasma ([2]; 4 hr, dog 1) [%] | Chromatographic distribution of radioactivity in dog plasma ([2]; 4 hr, dog 2) [%] | Estimated plasma concentration in dogs ([2]; 8 hr, dog 2) | Estimated plasma concentration in dogs ([2]; 8 hr, dog 3) | Chromatographic distribution of radioactivity in dog plasma ([2]; 24 hr, dog 1) [%] | Estimated plasma concentration in dogs ([2]; 48 hr, dog 1) | Estimated plasma concentration in dogs ([2]; 48 hr, dog 2) | Estimated plasma concentration in dogs ([2]; 48 hr, dog 3) | concentration at 4 h [2, 3] [ng/mL] | concentration at 4 h [2, 4] [ng/mL] | concentration at 24 h [2, 5] [ng/mL] | further results
c1cc2c3c(c1)[C@H]1CCC[C@H]1CN3CCNC2 [DCDQ, (9aR,12aS)-4,5,6,7,9,9a,10,11,12,12a-decahydro-cyclopenta[c][1,4]diazepine[6,7,1-ij]quinoline, reference compound] | 3.4 | 3.8 | 3.0 | 6.9 | 11 | 21 | BQL | BQL | 2.6 | BQL | BQL | BQL | 52.5 | 345 | 39.6 | Chromatographic distribution of radioactivity in dog urine ([1]; 8-24 hr, dog 1): 9.5%; Chromatographic distribution of radioactivity in dog urine ([1]; 8-24 hr, dog 3): 11%; Chromatographic distribution of radioactivity in dog plasma ([2]; 2 hr, dog 1): 11%; Chromatographic distribution of radioactivity in dog plasma ([2]; 2 hr, dog 2): 1.9%; Chromatographic distribution of radioactivity in dog plasma ([2]; 8 hr, dog 1): 2.7%; Estimated plasma concentration in dogs ([2]; 24 hr, dog 2): BQL; Chromatographic distribution of radioactivity in dog plasma ([2]; 24 hr, dog 3): 2.3%; concentration at 2 h ([2]; male, beagle, dog, plasma, oral, 15 mg/kg, 2 hr, dog 1, read-out: Estimated plasma concentration in dogs): 39.6 ng/mL; concentration at 2 h ([2]; male, beagle, dog, plasma, oral, 15 mg/kg, 2 hr, dog 2, read-out: Estimated plasma concentration in dogs): 23.2 ng/mL; concentration at 8 h ([2]; male, beagle, dog, plasma, oral, 15 mg/kg, 8 hr, dog 1, read-out: Estimated plasma concentration in dogs): 14.5 ng/mL; concentration at 24 h ([2]; male, beagle, dog, plasma, oral, 15 mg/kg, 24 hr, dog 3, read-out: Estimated plasma concentration in dogs): 43.8 ng/mL
O=C1CC[C@@H]2c3cccc4c3N(CCNC4)C[C@H]12 [Metabolite M7, 17-keto DCDQ] | 5.9 | 5.0 | 9.2 | 3.4 | 6.9 | 7.8 | BQL | BQL | 13 | BQL | BQL | BQL | 34.5 | 127 | 202 | Chromatographic distribution of radioactivity in dog urine ([1]; 24-48 hr, dog 2): 6.2%; Estimated plasma concentration in dogs ([2]; 2 hr, dog 1): BQL; Estimated plasma concentration in dogs ([2]; 2 hr, dog 2): BQL; Estimated plasma concentration in dogs ([2]; 8 hr, dog 1): BQL; Chromatographic distribution of radioactivity in dog plasma ([2]; 24 hr, dog 2): 6.7%; Estimated plasma concentration in dogs ([2]; 24 hr, dog 3): BQL; concentration at 24 h ([2]; male, beagle, dog, plasma, oral, 15 mg/kg, 24 hr, dog 2, read-out: Estimated plasma concentration in dogs): 73.6 ng/mL

— US20060111305A1, “Metabolites of certain [1,4]diazepino[6,7,1-ij]quinoline derivatives and methods of preparation and use thereof” (Wyeth, priority 2004, published 2006)
